Measurements as given in patent EP0320984A2, “1,4-Dihydropyridine derivatives” (FUJIREBIO INC., priority 1987, dated 1989).

Key:
[1] = system: Rabbit platelet rich plasma (PRP); assay: Inhibitory activity on platelet aggregation in rabbit platelet rich plasma (light transmission); type: cell-based; settings: added to PRP 30 minutes before agent; for Inhibitory activity on platelet aggregation, PAF: compound 3x10^-6 (unit not given), Platelet activating factor (PAF) 10 mg/ml; for Inhibitory activity on platelet aggregation, ADP / Inhibitory activity on platelet aggregation, AA / Inhibitory activity on platelet aggregation, Collagen: compound 10^-4 (unit not given); for Inhibitory activity on platelet aggregation, ADP: Adenosine diphosphate (ADP) 5 mM; for Inhibitory activity on platelet aggregation, AA: Arachidonic acid (AA) 1 mM; for Inhibitory activity on platelet aggregation, Collagen: aggregating agent collagen
Procedure: 3. Experiment for inhibitory activity on platelet aggregation in rabbit:
Rabbit platelet rich plasma (PRP) was prepared by centrifugation of the citrated blood at 380 g for 10 minutes at 20°C. Test solution (10 µl) was added to PRP (200 µl) 30 minutes before treatment of aggregation agents (10 µl). The extent of aggregation was expressed with the maximum change in light transmission for PRP and platelet poor plasma was taken as a value of 100%

Thoracic aortas = assay: Inhibitory activity on KCl-induced contraction of aorta (helical strips of thoracic aorta); design: species or system male rabbits; settings: 10^-6M, 60min after addition; 30 mM KCl, rabbit aorta strips, 37°C
Procedure: 2. Experiment for inhibitory activity on KCl-induced contraction of aorta: Thoracic aortas were isolated from male rabbits and cut into helical strips. The preparations were mounted vertically in organ baths containing 30 ml of Krebs- Henseleit solution. […] Test and reference compounds were added to the bath 30 minutes after KCl treatment.

Row | Compound | Inhibitory activity on platelet aggregation, PAF [1] | Inhibitory activity on platelet aggregation, ADP [1] | Inhibitory activity on platelet aggregation, AA [1] | Inhibitory activity on platelet aggregation, Collagen [1] | Inhibitory effect on KCl-induced contraction (Thoracic aortas)
1 | C/C=C/C=C/COC(=O)C1=C(C)NC(C)=C(C(=O)OC/C=C/c2ccc(Cn3ccnc3)cc2)C1c1cccc([N+](=O)[O-])c1 (stereo not drawn) [Example 15, (E)-2,(E)-4-hexadien-1-yl (E)-3-{4-(1-imidazolylmethyl)phenyl}2-propen-1-yl 1,4-dihydro-2,6-dimethyl-4-(3-nitrophenyl)pyridine-3,5-dicarboxylate] | 74.1% | 8.8% | 30.2% | 10.5% | 21.6%
2 | COC(=O)C1=C(C)NC(C)=C(C(=O)OC/C=C/c2ccc(Cn3ccnc3)cc2)C1c1cccc(C(F)(F)F)c1 (stereo not drawn) [Example 17, (E)-3-{4-(1-imidazolylmethyl)phenyl}-2-propen-1-yl methyl 1,4-dihydro-2,6-dimethyl-4-(3-trifluoromethylphenyl)pyridine-3,5-dicarboxylate] | 39.7% | 10.5% | 37.8% | 55.0% | –
3 | COC(=O)C1=C(C)NC(C)=C(C(=O)OC/C=C/c2ccc(Cn3ccnc3)cc2)C1c1ccccc1C#N (stereo not drawn) [Example 18, (E)-3-{4-(1-imidazolylmethyl)phenyl}-2-propen-1-yl methyl 1,4-dihydro-2,6-dimethyl-4-(2-cyanophenyl)pyridine-3,5-dicarboxylate] | 48.6% | 8.8% | 30.4% | 61.8% | –
4 | COC(=O)C1=C(C)NC(C)=C(C(=O)OC/C=C/C=C/c2ccc(Cn3ccnc3)cc2)C1c1cccc([N+](=O)[O-])c1 (stereo not drawn) [Example 19, 5-{4-(1-imidazolylmethyl)phenyl}-(E)-2,(E)-4-pentadien-1-yl methyl 1,4-dihydro-2,6-dimethyl-4-(3-nitrophenyl)pyridine-3,5-dicarboxylate] | 41.5% | 17.2% | 35.5% | 66.3% | 68.8%
5 | COC(=O)C1=C(C)NC(C)=C(C(=O)OC/C=C/c2ccccc2Cn2ccnc2)C1c1cccc([N+](=O)[O-])c1 (stereo not drawn) [Example 20, (E)-3-{2-(1-imidazolylmethyl)phenyl}-2-propen-1-yl methyl 1,4-dihydro-2,6-dimethyl-4-(3-nitrophenyl)pyridine-3,5-dicarboxylate] | 0% | 9.5% | 30.4% | 32.3% | –
6 | COC(=O)C1=C(C)NC(C)=C(C(=O)OC/C=C/c2cccc(Cn3ccnc3)c2)C1c1cccc([N+](=O)[O-])c1 (stereo not drawn) [Example 21, (E)-3-{3-(1-imidazolylmethyl)phenyl}-2-propen-1-yl methyl 1,4-dihydro-2,6-dimethyl-4-(3-nitrophenyl)pyridine-3,5-dicarboxylate] | 25.4% | 17.3% | 37.6% | 29.5% | –
7 | COC(=O)C1=C(C)NC(C)=C(C(=O)OC/C=C/c2ccc(Cn3ccnc3)cc2)C1c1cccnc1 (stereo not drawn) [Example 22, (E)-3-{4-(1-imidazolylmethyl)phenyl}-2-propen-1-yl methyl 1,4-dihydro-2,6-dimethyl-4-(3-pyridyl)pyridine-3,5-dicarboxylate] | 0% | 14.7% | 23.2% | 24.7% | –
8 | COC(=O)C1=C(C)NC(C)=C(C(=O)OC/C=C/c2ccc(Cn3ccnc3)cc2)C1c1ccnc2ccccc12 (stereo not drawn) [Example 23, (E)-3-{4-(1-imidazolylmethyl)phenyl}-2-propen-1-yl methyl 1,4-dihydro-2,6-dimethyl-4-(4-quinolyl)pyridine-3,5-dicarboxylate] | 0% | 2.6% | 25.7% | 29.5% | –
9 | COC(=O)C1=C(C)NC(C)=C(C(=O)OC/C=C/c2ccc(C(C)n3ccnc3)cc2)C1c1cccc([N+](=O)[O-])c1 (stereo not drawn) [Example 24, (E)-3-{4-{1-(1-imidazolyl)ethyl}phenyl}-2-propen-1-yl methyl 1,4-dihydro-2,6-dimethyl-4-(3-nitrophenyl)pyridine-3,5-dicarboxylate] | 18.3% | 7.8% | 28.2% | 27.5% | 74.3%
10 | COC(=O)C1=C(C)NC(C)=C(C(=O)OC/C=C/c2cccc(Cn3ccnc3)n2)C1c1cccc([N+](=O)[O-])c1 (stereo not drawn) [Example 25, (E)-3-{6-(1-imidazolylmethyl)pyridine-2-yl}-2-propen-1-yl methyl 1,4-dihydro-2,6-dimethyl-4-(3-nitrophenyl)pyridine-3,5-dicarboxylate] | 28.5% | 0% | 27.8% | 22.5% | –
11 | COC(=O)C1=C(C)NC(C)=C(C(=O)OCCON=Cc2ccc(Cn3ccnc3)cc2)C1c1cccc([N+](=O)[O-])c1 (stereo not drawn) [Example 26, 2-[{4-(1-imidazolylmethyl)benzylideneamino}oxy]ethyl methyl 1,4-dihydro-2,6-dimethyl-4-(3-nitrophenyl)pyridine3,5-dicarboxylate] | 30.0% | 6.0% | 27.6% | 13.5% | –
12 | COC(=O)C1=C(C)NC(C)=C(C(=O)OCCN(C)Cc2ccccc2)C1c1cccc([N+](=O)[O-])c1.Cl (stereo not drawn) [NICARDIPINE, 1,4-dihydro-2,6-dimethyl-4-(3-nitrophenyl)pyridine-3,5-dicarboxylic acid-3-[2-(N-benzyl-N-methylamino)ethyl]ester-5-methyl ester hydrochloride, reference compound] | – | 6.9% | – | 3.6% | 91.1%
13 | COC(=O)C1=C(C)NC(C)=C(C(=O)OC)C1c1ccccc1[N+](=O)[O-] [NIFEDIPINE, 1,4-dihydro-2,6-dimethyl-4-(2-nitrophenyl)pyridine-3,5-dicarboxylic acid dimethyl ester, reference compound] | – | 0% | 0.2% | 5.1% | 87.6%
